PMC2912408 (Biochemistry, 2010)

These compounds were tested against T1, rat I7 olfactory receptor (OR-I7) (Rattus norvegicus, UniProt P23270).
T1 sequence (P23270 1-327): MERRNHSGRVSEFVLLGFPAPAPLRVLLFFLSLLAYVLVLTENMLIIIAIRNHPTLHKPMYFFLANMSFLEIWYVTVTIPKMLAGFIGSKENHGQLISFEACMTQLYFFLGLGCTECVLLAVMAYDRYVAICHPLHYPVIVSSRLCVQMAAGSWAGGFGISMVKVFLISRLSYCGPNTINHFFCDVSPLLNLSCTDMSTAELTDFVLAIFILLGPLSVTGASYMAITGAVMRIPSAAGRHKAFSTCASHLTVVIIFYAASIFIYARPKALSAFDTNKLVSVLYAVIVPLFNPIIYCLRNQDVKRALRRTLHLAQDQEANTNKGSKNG
Assay type: cell-based
For `CCCCCCCCCC=O` [decanal], the EC50 was 16 ± 1.7 µM. For `CCCCCCCCC=O` [nonanal], the EC50 was 4.4 ± 0.4 µM. Work on `CCCCCCCCCCC=O` [undecanal] yielded an EC50 of 446 ± 16 µM.
